From patent US7375180B2, “Methods and compositions related to IRM compounds and Toll-like receptor 8” (3M Innovative Properties Company, priority 2003, dated 2008)

Key:
TLR8 [1] = target: T1, TLR8 (Homo sapiens, UniProt Q9NR97); test: NF-κB-luciferase reporter activation in HEK293-TLR8 cells, 10 μM IRM (Example 1); format: cell-based; set-up: expressed in transfected cells; host or cells: HEK293 (ATCC CRL-1573), pIRES vector, G-418 selected, co-transfected with NFkB-luc reporter; conditions: for Fold Increase Over DMSO Control, HEK293-TLR8: 16 hours, luciferase signal, TLR8-transfected cells; for Fold Increase Over DMSO Control, HEK293-TLR8 / HEK293-vector: ratio of TLR8-transfected to vector-transfected cells
T1 sequence (Q9NR97 27-1041): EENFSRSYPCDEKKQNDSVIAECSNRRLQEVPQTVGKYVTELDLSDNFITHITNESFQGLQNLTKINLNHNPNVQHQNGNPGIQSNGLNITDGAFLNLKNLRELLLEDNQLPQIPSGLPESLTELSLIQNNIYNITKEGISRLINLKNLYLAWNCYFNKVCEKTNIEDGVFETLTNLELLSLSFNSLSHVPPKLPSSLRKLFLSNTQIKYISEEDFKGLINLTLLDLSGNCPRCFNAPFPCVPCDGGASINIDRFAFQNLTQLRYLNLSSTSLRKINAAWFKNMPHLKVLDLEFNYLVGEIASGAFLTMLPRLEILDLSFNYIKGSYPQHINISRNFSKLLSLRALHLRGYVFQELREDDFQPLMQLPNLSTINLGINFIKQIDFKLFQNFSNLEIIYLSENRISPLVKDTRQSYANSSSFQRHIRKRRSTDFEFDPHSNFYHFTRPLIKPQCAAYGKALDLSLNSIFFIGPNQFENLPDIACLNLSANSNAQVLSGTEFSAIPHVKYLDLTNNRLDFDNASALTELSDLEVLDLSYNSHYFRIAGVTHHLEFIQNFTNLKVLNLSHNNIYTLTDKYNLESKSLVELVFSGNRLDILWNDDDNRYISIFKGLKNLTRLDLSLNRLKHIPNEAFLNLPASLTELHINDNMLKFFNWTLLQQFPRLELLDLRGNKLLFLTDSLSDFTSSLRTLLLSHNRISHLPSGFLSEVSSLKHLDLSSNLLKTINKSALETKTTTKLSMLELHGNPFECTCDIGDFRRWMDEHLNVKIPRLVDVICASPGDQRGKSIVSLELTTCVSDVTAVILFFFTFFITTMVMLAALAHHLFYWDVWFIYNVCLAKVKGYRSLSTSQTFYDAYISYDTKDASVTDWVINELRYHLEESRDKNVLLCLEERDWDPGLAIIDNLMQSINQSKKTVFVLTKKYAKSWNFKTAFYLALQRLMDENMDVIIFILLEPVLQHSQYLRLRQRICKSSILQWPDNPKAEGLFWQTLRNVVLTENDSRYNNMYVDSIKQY
Text: (§1) HEK293 cells, derived from human embryonic kidney cells, may be co-transfected with (1) either a control vector (HEK293-vector) or a vector construct including human TLR8 (HEK293-TLR8), and (2) an NF-κB-luciferase reporter. The NF-κB-luciferase reporter provides a luciferase signal upon NF-κB activation in a transfected cell. Thus, TLR8-mediated NF-κB activity can be detected by exposing the cells transfected with vector and the cells transfected with the TLR8 construct to a test compound, then comparing the luciferase signal of the vector-transfected cells with the luciferase signal of the cells transfected with the TLR8 construct.
(§2) HEK293 cells were cultured in 90% Minimum Essential Medium (MEM) with 2 mM L-glutamine and Earle's Balanced Salt Solution (Invitrogen Corp., Rockville, Md.) adjusted to contain 1.5 g/L sodium bicarbonate, 0.1 mM non-essential amino acids, and 1.0 mM sodium pyruvate; 10% heat-inactivated fetal calf serum. The cells were incubated at 37° C., 8% CO2.
(§3) The cells were co-transfected with (1) pIRES (BD Biosciences Clontech, Palo Alto, Calif.) either (a) unmodified (HEK293-vector) or (b) containing human TLR8 (HEK293-TLR8), and (2) NFkB-luc reporter (Stratagene, La Jolla, Calif.) in a 10:1 ratio with Fugene 6 transfection reagent (Roche Diagnostics Corp., Indianapolis, Ind.) following the manufacturer's instructions.
(§4) The cells were stimulated with 1 μL of IRM compounds at 1 mM in DMSO (final IRM concentration of 10 μM) or 1 μL DMSO as a control. The plates were then incubated an additional 16 hours at 37° C., 5% CO2. Luminescence was measured on an LMAX luminometer (Molecular Devices Corp., Sunnyvale, Calif.).

HEK293-vector = test: NF-κB-luciferase reporter activation in HEK293-vector control cells, 10 μM IRM (Example 1); format: cell-based, human; conditions: 16 hours, luciferase signal, vector-transfected cells
Text: as §1, §2, §3, §4

TLR8 [2] = target: T1, TLR8; test: Identification as TLR8 activator or non-activator (negative control compound); format: cell-based; conditions: used as negative control in monocyte, dendritic cell and macrophage tests

SMILES	Fold Increase Over DMSO Control, HEK293-TLR8 (TLR8 [1]) [fold]	Fold Increase Over DMSO Control, HEK293-TLR8 / HEK293-vector (TLR8 [1])	Fold Increase Over DMSO Control, HEK293-vector (HEK293-vector) [fold]	fold induction at 10 µM (HEK293-vector; Homo sapiens, read-out: Fold Increase Over DMSO Control, HEK293-vector)	TLR8 activation (in words) (TLR8 [2])
CCOCc1nc2c(N)nc3ccccc3c2n1CCCNC(=S)Nc1cccc(C#N)c1 [IRM 14, N-{3-[4-amino-2-(ethoxymethyl)-1H-imidazo[4,5-c]quinolin-1-yl]propyl}-n′-(3-cyanophenyl)thiourea]	10.00	7.9	1.26		
CCCCc1nc2c(N)nc3ccccc3c2n1CC(C)(C)CNC(=O)c1ccccc1 [IRM 15, N-[3-(4-amino-2-butyl-1H-imidazo[4,5-c]quinolin-1-yl)-2,2-dimethylpropyl]benzamide]	2.14	2.7		0.78	
CCc1nc2c(N)nc3ccccc3c2n1CCCCNS(C)(=O)=O [IRM 16, N-[4-(4-amino-2-ethyl-1H-imidazo[4,5-c]quinolin-1-yl)butyl]methanesulfonamide]					does not activate TLR8
